Here are results for 3 compounds from patent publication US7235678B2 (priority 2004, dated 2007).

≈ marks a conversion by molar mass, not a printed value.

Assay [1] deals with Candida albicans (5 isolates). Briefly: Antibiotic inhibition assay using disc method, C. albicans isolates. It counts as cell-based.
The test system of another assay is Benjaminiella poitrasii. The assay is described as follows: microbe, parasite or virus in culture. It counts as cell-based. The note with it: B. poitrassi, disc method; for MIC: 28° C.
A further assay concerns Yarrowia lipolytica. The assay is described as follows: Antibiotic inhibition assay using disc method, Y. lipolytica. It counts as cell-based. Particulars: for MIC: 28° C.
For assay [2], the system named is Candida albicans (5 isolates), Benjaminiella poitrasii and Yarrowia lipolytica. The assay is described as follows: Antibiotic inhibition assay using disc method, all fungi tested together. It counts as cell-based. Particulars: for antifungal activity (in words): Candida albicans (five isolates), Benjaminiella poitrasii and Yarrowia lipolytica, compared with cycloheximide; for MIC: all five C. albicans isolates, B. poitrassi and Y. lipolytica.

Assay [3] deals with clinical isolate of C. albicans. The note with it: microtitre dilution broth assay; cited from earlier work.
Where [4] appears, read: C. albicans, Isolate no. 1, disc method.
Setting [5] is: C. albicans, Isolate no. 1, disc method, 28° C., 24 hours.
[6] abbreviates: C. albicans, Isolate no. 2, disc method.
[7] abbreviates: C. albicans, Isolate no. 2, disc method, 28° C., 24 hours.
[8] abbreviates: C. albicans, Isolate no. 3, disc method.
Setting [9] is: C. albicans, Isolate no. 3, disc method, 28° C., 24 hours.
[10] abbreviates: C. albicans, Isolate no. 4, disc method.
[11] abbreviates: C. albicans, Isolate no. 4, disc method, 28° C., 24 hours.
Setting [12] is: C. albicans, Isolate no. 5, disc method.
Setting [13] is: C. albicans, Isolate no. 5, disc method, 28° C., 24 hours.

For “N^1,N^3-Diethylenetriaminebis [Compound (2), N^1,N^3-Diethylenetriaminebis [deoxycholic acid amide]]”, the “Inhibition Zone” value came out at 0.9 cm in assay [1] (setting [4]); 0.7 cm in assay [1] (setting [6]); 1.0 cm in assay [1] (setting [8]); 0.8 cm in assay [1] (setting [10]); 0.9 cm in assay [1] (setting [12]); 0.6 cm in the assay on Benjaminiella poitrasii. Moreover, in the assay with Yarrowia lipolytica, the “Inhibition Zone” value stood at 0.8 cm. The MIC in assay [1] (setting [5]) is 0.01175 µM; in assay [1] (setting [7]), 0.01175 µM; in assay [1] (setting [9]) it was 0.01175 µM; in assay [1] (setting [11]), 0.01175 µM; in assay [1] (setting [13]) it was 0.01763 µM; with Benjaminiella poitrasii (24 hours) it was 0.01763 µM. For the same compound, the MIC is 0.0235 µM against Yarrowia lipolytica (24 hours) and 0.01 to 0.025 µM in assay [2]. For the same compound, the “antifungal activity (in words)” value in assay [2] is “moderate antifungal activity”.

Turning to `CC(CCC(=O)NCCNCCNC(=O)CCC(C)C1CCC2C3C(O)CC4CC(O)CCC4(C)C3CC(O)C12C)C1CCC2C3C(O)CC4CC(O)CCC4(C)C3CC(O)C12C` (stereo not drawn) [Compound (1), N^1,N^3-Diethylenetriaminebis [cholic acid amide]], the “Inhibition Zone” value was determined as 0.8 cm in assay [1] (setting [4]); 0.8 cm in assay [1] (setting [6]); 0.8 cm in assay [1] (setting [8]); 0.8 cm in assay [1] (setting [10]); 0.8 cm in assay [1] (setting [12]); 0.7 cm with Benjaminiella poitrasii. In addition, the “Inhibition Zone” value with Yarrowia lipolytica was determined as 0.9 cm. For the same compound, the MIC (in assay [1] (setting [5]); in assay [1] (setting [7]); in assay [1] (setting [9]); in assay [1] (setting [11]); in assay [1] (setting [13]); against Benjaminiella poitrasii (24 hours)) was 0.01132 µM (≈ 0.01 µg/mL) in each case. Also, the MIC (against Yarrowia lipolytica (24 hours); in assay [2]) was 0.01132 µM (≈ 0.01 µg/mL) in each case. The “antifungal activity (in words)” value in assay [2] is reported as “very good antifungal activity”. In addition, in assay [2] (summary in description, fungi not specified), the “minimum inhibitory concentration (MIC)” value was “about 11.30 nM”.

With `C[C@@H]1C[C@@H]([C@H](O)CC2CC(=O)NC(=O)C2)C(=O)[C@@H](C)C1` [Cycloheximide, reference compound], the MIC result in assay [3] is “greater than 900 nM”; in assay [1] (Candida albicans, 24 h, C. albicans, Isolate no. 1, disc method, 28° C.), 0.356 µM (≈ 0.1 µg/mL); in assay [1] (Candida albicans, 24 h, C. albicans, Isolate no. 2, disc method, 28° C.), 0.539 µM (≈ 0.152 µg/mL); in assay [1] (Candida albicans, 24 h, C. albicans, Isolate no. 3, disc method, 28° C.), 0.267 µM (≈ 0.0751 µg/mL); in assay [1] (Candida albicans, 24 h, C. albicans, Isolate no. 4, disc method, 28° C.) it was 0.534 µM (≈ 0.15 µg/mL); in assay [1] (Candida albicans, 24 h, C. albicans, Isolate no. 5, disc method, 28° C.), 0.534 µM (≈ 0.15 µg/mL). For the same compound, the MIC is 0.25 to 0.5 µM (≈ 0.0703 to 0.141 µg/mL) in assay [1] (Candida albicans, isolates of C. albicans, range over isolates); 0.0712 µM (≈ 0.02 µg/mL) in the assay on Benjaminiella poitrasii (24 hours); 0.071 µM (≈ 0.02 µg/mL) against Benjaminiella poitrasii (Benjaminiella poitrasii, 24 h); 0.1068 µM (≈ 0.03 µg/mL) in the assay on Yarrowia lipolytica (24 hours); 0.106 µM (≈ 0.0298 µg/mL) against Yarrowia lipolytica (Yarrowia lipolytica, 24 h). Further, the “Inhibition Zone” value is 1.0 cm in assay [1] (setting [4]); 0.9 cm in assay [1] (setting [6]); 0.9 cm in assay [1] (setting [8]); 1.0 cm in assay [1] (setting [10]); 0.8 cm in assay [1] (setting [12]); 1.45 cm in the assay with Benjaminiella poitrasii. Further, in the assay with Yarrowia lipolytica, the “Inhibition Zone” value was 0.9 cm.
